Assay results as given in US20250049791A1, “Synthesis of MEK7 Inhibitors and methods of Use Thereof” (Northwestern University, priority 2023, published 2025).
Where two headings read alike, the source gives them in different places.

Biological target: T1, recombinant active full-length human MEK7 (Homo sapiens, UniProt O14733)
T1 construct: recombinant active full-length human MEK7 (Carna Biosciences); purchased Carna Biosciences
T1 sequence (O14733 1-419): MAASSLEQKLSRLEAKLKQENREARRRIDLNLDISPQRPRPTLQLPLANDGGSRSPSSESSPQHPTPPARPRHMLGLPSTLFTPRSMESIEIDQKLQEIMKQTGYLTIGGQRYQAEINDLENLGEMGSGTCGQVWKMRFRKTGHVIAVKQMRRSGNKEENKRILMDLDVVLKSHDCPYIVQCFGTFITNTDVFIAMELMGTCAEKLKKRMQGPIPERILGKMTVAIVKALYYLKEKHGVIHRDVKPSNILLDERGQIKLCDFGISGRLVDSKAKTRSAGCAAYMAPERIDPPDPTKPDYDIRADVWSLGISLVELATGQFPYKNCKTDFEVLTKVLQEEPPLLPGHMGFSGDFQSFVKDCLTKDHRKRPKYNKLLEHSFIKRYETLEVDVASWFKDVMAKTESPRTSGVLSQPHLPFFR
Assay: ADP-Glo kinase activity assay, MEK7 with JNK1 substrate
Assay type: biochemical
Conditions: for in vitro activity against MAP2K7, in words: ADP-Glo assay, comparison within the series
Method: Procedure for a 5 μL Kinase reaction using the ADP-Glo Kinase Assay Kit from Promega. Staurosporine was used as the positive control, and DMSO (vehicle) was employed as the negative control. Activity of recombinant active full-length human MEK7 (Carna Biosciences) was measured with recombinant full-length human substrate JNK1 (MAPK8). Using a Mantis, a mixture of MEK7 and JNK1 was dispensed into a 384-well low volume white Proxiplate. For each well, 4 ng of MEK7 and 600 ng of JNK1 in kinase buffer (CST) were used, accounting for 1 μL of this mixture per well. Inhibitor was prepared in a DMSO solution (40 mM). A dose-response dilution was performed in a 384-well Echo transfer plate. Using an Echo Access, 10 nL of each solution was dispensed into the same 384-well low volume white Proxiplate as above. This mixture was allowed to incubate for 30 minutes at room temperature. Using a Mantis, 1 uL of an 8 μM ATP solution was added to each well, and the plate was allowed to incubate for another 1 hour at room temperature. Using the Mantis again, 4 μL of ADP Glo Reagent was dispensed into each well, and the plate was allowed to incubate for 45 min at room temperature. Finally, 9 μL of Kinase Detection Reagent was added manually to each well, and the plate was allowed to incubate for 45 minutes at room temperature. Luminescence was read on a Synergy Neo2 Plate Reader with filter cubes 3 and 114. Integration time was set to 0.20 seconds, gain set to 160, and read height set at 6 mm. All experiments were performed in triplicate on the plate, and at least in one separate technical duplicate was performed.
MEK4 selectivity was performed in the same manner with activated MEK4 (Carna Biosciences). Here, p-38α was employed as the kinase substrate in lieu of JNK1 due to the availability of reagents. […] To probe the ATP-competitive nature of 25, this compound was subjected to a similar assay forgoing the 30 minute incubation time described above (STAR Protocols 2021, 2, 100717). The results are tabulated below in compound characterization. Potency determined by duplicate of triplicates corresponded to a IC50 value, which is in line with the ratio difference observed among other covalent inhibitors (for examples, see Cell Chem. Biol. 2020, 27, 1285).

[1] = 30 min preincubation, overall value of two experiments, read-out: MEK7 IC50
[2] = MEK7 IC50, first experiment (IC50±SEM, n=3), 30 min preincubation, first value in brackets
[3] = MEK7 IC50, second experiment (IC50±SEM, n=3), 30 min preincubation, second value in brackets
[4] = 30 min preincubation, first value in brackets
[5] = 30 min preincubation, read-out: MEK7 IC50
[6] = read-out: MEK7 IC50, second experiment (IC50±SEM, n=3), 30 min preincubation, second value in brackets

SMILES	IC50 [1] [nM]	in vitro activity against MAP2K7, in words	IC50 [2] [nM]	IC50 [3] [nM]	also measured
CNc1cc(Oc2ccc(NC(=O)CCl)cc2)ncn1 [Compound 6, 2-chloro-N-(4-((6-(methylamino)pyrimidin-4-yl)oxy)phenyl)acetamide]	1800	less active than compound 8	1500 ± 210	2100 ± 1100	–
O=C(CCl)Nc1cccc(Oc2cc(N3CCOCC3)ncn2)c1 [Compound 14, 2-chloro-N-(3-((6-morpholinopyrimidin-4-yl)oxy)phenyl)acetamide]	–	–	–	–	MEK7 IC50, first experiment (IC50±SEM, n=3) [4]: 1300 ± 3400 nM
O=C(CCl)Nc1cccc(Oc2cc(NCc3cc(F)cc(F)c3)ncn2)c1 [Compound 26, 2-chloro-N-(3-((6-((3,5-difluorobenzyl)amino)pyrimidin-4-yl)oxy)phenyl)acetamide]	74	–	110	–	–
COc1ccc(CNc2cc(Oc3cccc(NC(=O)CCl)c3)ncn2)cc1OC [Compound 35, 2-chloro-N-(3-((6-((3,4-dimethoxybenzyl)amino)pyrimidin-4-yl)oxy)phenyl)acetamide]	260	–	390 ± 730	120	–
O=C(CCl)Nc1cccc(Oc2cc(NCc3ccc(F)c(F)c3)ncn2)c1 [Compound 29, 2-chloro-N-(3-((6-((3,4-difluorobenzyl)amino)pyrimidin-4-yl)oxy)phenyl)acetamide]	42	–	–	–	IC50 [5]: 42 nM; IC50 (read-out: MEK7 IC50, first experiment (IC50±SEM, n=3), 30 min preincubation, first value in brackets): 42 ± 36 nM; IC50 [6]: 42 ± 58 nM
CC=CC(=O)Nc1cccc(Oc2cc(NC)ncn2)c1 (mixture of isomers) [Compound 10, (E/Z)—N-(3-((6-(methylamino)pyrimidin-4-yl)oxy)phenyl) but-2-enamide]	> 80000	less potent	–	–	–
O=C(CCl)Nc1cccc(Oc2cc(NCc3ccc(F)c(C(F)(F)F)c3)ncn2)c1 [Compound 31, 2-chloro-N-(3-((6-((4-fluoro-3-(trifluoromethyl)benzyl)amino)pyrimidin-4-yl)oxy)phenyl)acetamide]	3000	–	4200 ± 2500	1800 ± 1200	–
O=C(CCl)Nc1cccc(Oc2cc(NCCc3c[nH]c4ccccc34)ncn2)c1 [Compound 15, N-(3-((6-((2-(1H-indol-3-yl)ethyl)amino)pyrimidin-4-yl)oxy)phenyl)-2-chloroacetamide]	260	greatest potency	300 ± 92	210 ± 180	–
O=C(CCl)Nc1cccc(Oc2cc(NCc3ccccc3C(F)(F)F)ncn2)c1 [Compound 30, 2-chloro-N-(3-((6-((2-(trifluoromethyl)benzyl)amino)pyrimidin-4-yl)oxy)phenyl)acetamide]	1200	towards the micromolar range	1100 ± 480	1300 ± 550	–
O=C(CCl)Nc1cccc(Oc2cc(NC3CCCC3)ncn2)c1 [Compound 16, 2-chloro-N-(3-((6-(cyclopentylamino)pyrimidin-4-yl)oxy)phenyl)acetamide]	270	–	350 ± 150	190 ± 190	–
COc1ccc(CCNc2cc(Oc3cccc(NC(=O)CCl)c3)ncn2)cc1 [Compound 21, 2-chloro-N-(3-((6-((4-methoxyphenethyl)amino)pyrimidin-4-yl)oxy)phenyl)acetamide]	930	–	1200 ± 330	660 ± 310	–
O=C(CCl)Nc1cccc(Oc2cc(NCCc3ccc4c(c3)OCO4)ncn2)c1 [Compound 23, N-(3-((6-((2-(benzo[d][1,3]dioxol-5-yl)ethyl)amino)pyrimidin-4-yl)oxy)phenyl)-2-chloroacetamide]	1100	–	1400 ± 810	830 ± 680	–
COc1ccc(CCNc2cc(Oc3cccc(NC(=O)CCl)c3)ncn2)cc1OC [Compound 22, 2-chloro-N-(3-((6-((3,4-dimethoxyphenethyl)amino)pyrimidin-4-yl)oxy)phenyl)acetamide]	1700	–	1900 ± 550	1400 ± 970	–
O=C(CCl)Nc1cccc(Oc2cc(NCc3c(F)ccc(F)c3F)ncn2)c1 [Compound 28, 2-chloro-N-(3-((6-((2,3,6-trifluorobenzyl)amino)pyrimidin-4-yl)oxy)phenyl)acetamide]	110	–	880 ± 29	140 ± 44	–
CNc1cc(Oc2cccc(NC(=O)COC)c2)ncn1 [Compound 13, 2-methoxy-N-(3-((6-(methylamino)pyrimidin-4-yl)oxy)phenyl)acetamide]	–	attenuated activity	–	–	–
COc1ccccc1CNc1cc(Oc2cccc(NC(=O)CCl)c2)ncn1 [Compound 32, 2-chloro-N-(3-((6-((2-methoxybenzyl)amino)pyrimidin-4-yl)oxy)phenyl)acetamide]	800	towards the micromolar range	590 ± 150	1000 ± 220	–
O=C(CCl)Nc1cccc(Oc2cc(NCc3ccc(C(F)(F)F)cc3)ncn2)c1 [Compound 37, 2-chloro-N-(3-((6-((4-(trifluoromethyl)benzyl)amino)pyrimidin-4-yl)oxy)phenyl)acetamide]	410	–	200 ± 410	640 ± 270	–
O=C(CCl)Nc1cccc(Oc2cc(NCc3cc(C(F)(F)F)cc(C(F)(F)F)c3)ncn2)c1 [Compound 33, N-(3-((6-((3,5-bis(trifluoromethyl)benzyl)amino)pyrimidin-4-yl)oxy)phenyl)-2-chloroacetamide]	–	–	4000 ± 4400	8500 ± 9800	–
O=C(CCl)Nc1cccc(Oc2cc(NCCc3ccc(F)cc3)ncn2)c1 [Compound 20, 2-chloro-N-(3-((6-((4-fluorophenethyl)amino)pyrimidin-4-yl)oxy)phenyl)acetamide]	1200	–	710 ± 400	1600 ± 1800	–
CNc1cc(Oc2cccc(NC(=O)CF)c2)ncn1 [Compound 12, 2-fluoro-N-(3-((6-(methylamino)pyrimidin-4-yl)oxy)phenyl)acetamide]	7800	attenuated activity	–	–	IC50 [4]: 7700 ± 20000 nM; IC50 [6]: 7800 ± 5000 nM
CN(Cc1ccccc1)c1cc(Oc2cccc(NC(=O)CCl)c2)ncn1 [Compound 24, N-(3-((6-(benzyl(methyl)amino)pyrimidin-4-yl)oxy)phenyl)-2-chloroacetamide]	110	ten-fold attenuation	140 ± 87	87 ± 42	–
Cc1ccc(CNc2cc(Oc3cccc(NC(=O)CCl)c3)ncn2)cc1 [Compound 36, 2-chloro-N-(3-((6-((4-methylbenzyl)amino)pyrimidin-4-yl)oxy)phenyl)acetamide]	360	–	420 ± 320	300 ± 150	–
C=CC(=O)Nc1ccc(Oc2cc(NC)ncn2)cc1 [Compound 7, N-(4-((6-(methylamino)pyrimidin-4-yl)oxy)phenyl) acrylamide]	8800	less active than compound 8	7700 ± 1300	9900 ± 1200	IC50 [5]: 60 nM
O=C(CCl)Nc1cccc(Oc2cc(NCc3ccc(F)cc3F)ncn2)c1 [Compound 27, 2-chloro-N-(3-((6-((2,4-difluorobenzyl)amino)pyrimidin-4-yl)oxy)phenyl)acetamide]	360	–	140	580 ± 200	–
O=C(CCl)Nc1cccc(Oc2cc(NCCc3ccc(Cl)cc3)ncn2)c1 [Compound 19, 2-chloro-N-(3-((6-((4-chlorophenethyl)amino)pyrimidin-4-yl)oxy)phenyl)acetamide]	66	greatest potency	53	78 ± 91	–
